Row | SMILES | melting point
1 | Oc1ccc(Cn2cnc3c(-c4ccco4)ncnc32)cc1 | 231 to 233 °C
2 | Cc1nc(C)c(Cl)c(NCc2nccc(SCCCSCCO)c2C)n1 | 134 to 137 °C
3 | CCn1c(=O)ccc2cnc(S(C)=O)nc21 (configuration not stated) | 202 to 203 °C
4 | O=C(Nc1cc(S(=O)(=O)N(CCO)CCO)sc1Cl)c1cnn2c(C(F)F)cc(-c3ccc(C(F)(F)F)cc3)nc12 | 216 °C
5 | CC(=NOCCO)c1ccc2ccccc2c1 | 94 to 96 °C
6 | CCc1cc(=O)c(I)c(CC)[nH]1 | 225 to 227 °C
7 | COc1ccccc1CC(=O)Nc1cc(Cl)c(Cl)cc1[N+](=O)[O-] | 123 to 125 °C
8 | CCCCCCCCCCCCCCCCNc1ccc(C(=O)OCC2CO2)cc1 (configuration not stated) | 86 to 89 °C
9 | CCCO[C@@H](C)C(=O)Oc1ccc(-c2ccc(O)cc2)cc1 | 120 °C
10 | COc1ccc2c(Cc3c(Cl)cncc3Cl)nncc2c1 | 173 to 175 °C
11 | CS(=O)(=O)c1ccc(C2=C(c3ccccc3)C(=O)C3(CCCC3)O2)cc1 | 184 to 185 °C
12 | CNC(=S)N1Cc2ccccc2C2(Cc3ccccc3O2)C1 (configuration not stated) | 165 °C
13 | CCOC(=O)Nc1cc(C(=O)OC)c(O)c2ncc(Cc3ccc(F)cc3)cc12 | 205 to 206 °C
14 | CC(=O)Nc1ccc(Oc2ccc3nc(COc4ccc(CC5SC(=O)NC5=O)cc4)n(C)c3c2)cc1 (configuration not stated) | 92.2 to 95 °C
15 | Cc1ccc(NC(=O)Oc2ccc3c(c2)N(Cc2ccccc2)CCC3)cc1 | 98 °C
16 | N#Cc1ccc(CCc2n[nH]c3c2c(=O)n(-c2ccccc2)c2ncccc32)cc1 | 267 to 269 °C
17 | O=c1ccc(S(=O)(=O)n2ccnc2)n[nH]1 | 55 to 60 °C
18 | O=C1c2ccc(O)cc2C(=O)N1c1cccc(O)c1 | 270 °C
19 | Cc1cc(CCc2ccc(-c3ccc(C(F)(F)F)cc3)cc2)ccc1OCC(=O)O | 174 to 176 °C
20 | CCCCSc1nc(N(C)C(C)=O)c(C#N)s1 | 40 °C
21 | CC(=O)OC1CSC(Oc2cccc3conc23)C(OC(C)=O)C1OC(C)=O (configuration not stated) | 157 °C
22 | CN1C(=O)c2cncnc2Nc2ccccc21 | 236 to 237 °C
23 | CN(C)c1ccc2sc(S(N)(=O)=O)cc2c1 | 197 to 199 °C
24 | CCN1CCN(CCCN2CC[C@H](NC(=O)c3cc(Cl)c(N)cc3OC)[C@H](OC)C2)C1=O (relative stereo) | 113 °C

Row | SMILES | melting point
25 | CN(Cc1ccc(NC(=O)C2=Cc3cc(-c4ccc5c(c4)OCO5)ccc3S(=O)(=O)CC2)cc1)C1CCC(=O)CC1 | 219 to 223 °C
26 | Cn1nc(-c2cc(N)c(F)cc2F)c(Cl)c1C(F)(F)F | 82 °C
27 | CCCCNC(=O)C(C)(C)N=NC(C)(C)C(=O)NCCCC | 65 °C
28 | CCN1CCC(N2C(=O)c3ccc([N+](=O)[O-])cc3C2=O)CC1 | 153 to 155 °C
29 | CCCCCCCN(CCc1ccc(OC(C)(C)C(=O)O)cc1)C(=O)Nc1ccc(OC)cc1OC | 95 to 96 °C
30 | [N-]=[N+]=NCc1nc2ccccc2n1Cc1ccccc1 | 108 to 110 °C
31 | Cc1c(C(=O)O)nnn1Cc1ccccc1Cl | 186 to 187 °C
32 | Cc1cc(OC(F)(F)C(F)Cl)ccc1NC(=O)CCCC=C(F)F (configuration not stated) | 59 to 60 °C
33 | N#CC(=NO)c1cccs1 | 103 to 104 °C
34 | O=C(Cl)C1CCN(c2cc(-c3ccccc3)nc3ccc(F)cc23)CC1 | 243 to 245 °C
35 | CN1CCCCC1CCCc1ccccc1NC(=O)C=Cc1ccccc1 (configuration not stated) | 130 to 132 °C
36 | Cc1cc(N)nc(CCc2nc3cc(-c4ccc(C#N)cc4)cnc3[nH]2)c1 | 218 °C
37 | O=C(Cn1c(-c2ccc(Cl)cc2)nc2cccnc21)NC1=NCCS1 | 227 to 229 °C
38 | O=c1[nH]c(N[N+](=O)[O-])ncc1Cc1ccncc1 | 228 to 229 °C
39 | Cc1cccc2sc(=NC(=O)C(F)(F)F)n(N)c12 | 160 to 161 °C
40 | O[C@H](COc1cccc2[nH]ccc12)CN1CC=C(c2c[nH]c3c(Cl)cccc23)CC1 | 85 to 90 °C
41 | CC(C)(C)c1cc(-c2c[nH]c(CNC(=O)OCc3ccccc3)n2)cc(C(C)(C)C)c1O | 212 to 213 °C
42 | COC(=O)c1ccc2c(c1C(=O)OC)C(=O)OC2=O | 178 to 180 °C
43 | COc1ccc(C2=C(c3ccccc3)CCCc3cc(OC4CCCCO4)ccc32)cc1 (configuration not stated) | 131 to 133 °C
44 | CC(C)C1NC(=O)C(CSSCC2NC(=O)C(C(C)C)NC2=O)NC1=O (configuration not stated) | 270 °C
45 | CC(C)(C)c1cc(SCc2ccc(-c3nnn[nH]3)cc2)cc(C(C)(C)C)c1 | 187 to 189 °C
46 | Cc1cc(C=O)cc(Oc2nc(Cl)nc(Cl)c2C(C)C)c1 | 227 to 229 °C
47 | CC(C)(C)OC(=O)NCCC(=O)N[C@@H](CC(=O)OCc1ccccc1)C(=O)NCCc1ccc(OCC(=O)OCc2ccccc2)cc1 | 123 to 124 °C
48 | CC(=O)N1CCCC1n1nccc1-c1ccc(Oc2ccc(F)cc2)cc1 (configuration not stated) | 90 to 95 °C

Row | SMILES | melting point
49 | CN(C(CCn1c(=O)[nH]c2ccsc2c1=O)C(=O)NO)S(=O)(=O)c1ccc(Oc2cccc(Cl)c2)cc1 (configuration not stated) | 192 to 194 °C
50 | C[C@@H](O)CCN1CCC(c2noc3cc(F)ccc23)CC1 | 82 to 84 °C
51 | CCOC(=O)COc1ccc(CCNC(=O)C[C@H]2O[C@H](c3cccc(OC)c3OC)c3cc(Cl)ccc3N(CC(C)(C)CO)C2=O)cc1 | 142 to 145 °C
52 | COCC1CN(c2ccc(C3CCC(O)CC3)cc2)C(=O)O1 (racemic) | 109 to 110 °C
53 | N#CCCCSc1nccc(NC(N)=NCC(F)(F)F)n1 | 137 °C
54 | Oc1cccc(C2CN=C(c3ccccn3)O2)c1 (configuration not stated) | 139 to 141 °C
55 | COc1ncccc1-c1ccc(Cl)c(OC2SCC(O)C(O)C2O)c1 (configuration not stated) | 119 °C
56 | Nc1cc(-n2cc(C(=O)O)c(=O)c3cc(F)c(NCC(O)C(F)(F)F)c(Cl)c32)c(F)cc1F (configuration not stated) | 134 to 138 °C
57 | CCc1nc2c(N)nc3cc(Oc4ccc(C(=O)OC)cn4)ccc3c2s1 | 213 to 214 °C
58 | Cc1oc(-c2ccccc2)nc1COc1ccc(CC2SC(=O)NC2=O)cn1 (configuration not stated) | 151 to 152 °C
59 | CSCCCCC(c1cc(F)ccc1F)S(=O)(=O)c1ccc(Cl)cc1 (configuration not stated) | 103 to 106 °C
60 | CCCCCCCCCCCCc1cc(C(=O)OCC)no1 | 34 to 36 °C
61 | COc1ccc(Oc2c(Cl)cc([N+](=O)[O-])cc2Cl)cc1C(C)C | 75 to 77 °C
62 | O=C1NC(=O)c2ccc(N3CCCCC3)cc2/C1=C/Nc1ccc(CN2CCCCC2)cc1 | 211 to 212 °C
63 | O=C(O)C=Cc1cc([N+](=O)[O-])ccc1Br | 185 °C
64 | Cc1[nH]c(=O)c(C#N)cc1-c1ccc2ncc(Cl)n2c1 | > 300 °C
65 | COc1cc(C)c(C(=O)c2c(Cl)nc(Cl)c(C(C)=O)c2C(F)(F)F)c(OC)c1OC | 109 to 112 °C
66 | COc1ccc(C(C#N)=C(C)C)cc1OC | 93 to 95 °C
67 | C[C@]12CC[C@@H]3c4ccc(OCC(=O)O)cc4CC[C@H]3[C@@H]1CCC2=O | 205 to 208 °C
68 | O=C1c2cccc3cc4ccccc4c(c23)C(=O)N1CCO | 211 °C
69 | COc1cc(-c2ccsc2)cc2oc(=O)c(C)c(C)c12 | 158 to 160 °C
70 | CCN1CCN(c2cccc(Nc3nc4c(-c5ccc(P(C)(C)=O)cc5)cccn4n3)c2)C(=O)C1 | 205 to 207 °C
71 | CC(C)n1nnnc1-c1ccc(N)c([N+](=O)[O-])c1 | 126 to 128 °C
72 | CN(O)C(=O)c1ccccc1 | < 20 °C

From a melting point compilation (Tetko et al.; mined from patent text by program, amines drawn as free bases though some values may be those of a salt)
